For one data set, the system named is SARS-CoV-2 USA-WA1/2020. Briefly: microbe, parasite or virus in culture. In kind it is cell-based. To be noted: for Virus Titer: USA-WA1/2020.
The test system of data set [1] is Vero E6 cells. In words: Cytotoxicity in uninfected Vero E6 cells, CellTiter-Glo. Background: ATP-based viability assays read luminescence as a measure of living cells.
Experiment in data set [2]: as above
To be noted: African green monkey.

Data set [3] concerns Vero E6 cells. Particulars: African green monkey, 48 h.
A further data set is described as follows: in vitro. To be noted: African green monkey.

The structures appear in SMILES notation. Where two headings read alike, the source gives them in different places. A value given as a limit tells only on which side of the number the result lay.

Broadly, the EC90 is the concentration needed for an effect of 90%. Read a low EC90 as greater potency. The viability is a read-out of living cells in per cent, often relative to untreated cells.

As for `COC(=O)/C=C/C(=O)NNC(=O)CCc1ccccc1C(=O)N[C@H](C)c1cccc2ccccc12` [Compound 7, methyl(R,E)-4-(2-(3-(2-((1-(naphthalen-1 yl)ethyl)carbamoyl)phenyl)propanoyl)hydrazineyl)-4-oxobut-2-enoate], the 90% effect level in the data set on SARS-CoV-2 USA-WA1/2020 (Severe acute respiratory syndrome coronavirus 2, Caco-2) (EC90) was put at 0.26 µM. Besides, the “Virus Titer” value is 4.0 CCID50/mL (Log10) in the data set on SARS-CoV-2 USA-WA1/2020 (0.01 µM), 1.7 CCID50/mL (Log10) in the data set on SARS-CoV-2 USA-WA1/2020 (0.1 µM), <0.7 CCID50/mL (Log10) in the data set with SARS-CoV-2 USA-WA1/2020 (1 µM) and <0.7 CCID50/mL (Log10) with SARS-CoV-2 USA-WA1/2020 (10 µM). Also, the “% cell viability, cytotoxicity” value in the data set with Vero E6 cells [1] (2.08 uM) is 98.575%; with Vero E6 cells [1] (8.33 uM), 99.545%; with Vero E6 cells [1] (16.65 uM), 90.390%. In addition, in the data set on Vero E6 cells [1] (uninfected Vero E6 cells, Yes/No), the “CC50 < 30 μM” value is “No”. Further, the viability at 48 h, 2.08 µM in data set [2] (% cell viability, cytotoxicity, 2.08 uM) was determined as 100%. The viability at 48 h, 8.33 µM in data set [2] (% cell viability, cytotoxicity, 8.33 uM) was found to be 99.6%. Further, the viability at 48 h, 16.65 µM in data set [2] (% cell viability, cytotoxicity, 16.65 uM) was 95.7%. The compound further registered a CC50 at 48 h in data set [2] (CC50, uninfected Vero E6 cells) above 30 µM.
`C[C@@H](NC(=O)c1ccccc1CCC(=O)NNC(=O)CCl)c1cccc2ccccc12` [Compound 9, (R)-2-(3-(2-(2-chloroacetyl)hydrazineyl)-3-oxopropyl)-N-(1-(naphthalen-1-yl)ethyl)benzamide]: the “cytotoxicity, %cell viability” value in the data set on Vero E6 cells [3] (2.08 µM) turned out to be 100.620%. Besides, in the data set with Vero E6 cells [3] (8.33 µM), the “cytotoxicity, %cell viability” value was 103.333%. Besides, the “cytotoxicity, %cell viability” value in the data set with Vero E6 cells [3] (16.65 µM) is listed as 94.042%. The compound also showed a CC50 at 48 h in the data set “in vitro” (CC50) above 30 µM. For the same compound, in the data set “in vitro” (cytotoxicity, %cell viability), the viability at 48 h, 2.08 µM was determined as 102%; the viability at 48 h, 8.33 µM stood at 99.1%; the viability at 48 h, 16.65 µM amounted to 91.4%.

For the origin of these results see paper PMC10044120, “Potent and selective covalent inhibition of the papain-like protease from SARS-CoV-2” (Nature Communications, 2023).
